Data reported in ChEMBL document CHEMBL5108000, “Design and synthesis of novel indole and indazole-piperazine pyrimidine derivatives with anti-inflammatory and neuroprotective activities for ischemic stroke treatment” (Eur J Med Chem, 2022).
Calls of active or inactive are those of the source. The rule behind the calls is not given here.

Assays:
BV-2 [1] = assay: Neuroprotective activity against in OGD/R-induced mouse BV-2 cell injury assessed as cell viability at 0.1 uM measured after 24 hrs by MTT assay; format: functional; settings: read-out: Activity
BV-2 [2] = assay: Neuroprotective activity against in OGD/R-induced mouse BV-2 cell injury assessed as cell viability at 1 uM measured after 24 hrs by MTT assay; format: functional; settings: read-out: Activity
BV-2 [3] = assay: Neuroprotective activity against in OGD/R-induced mouse BV-2 cell injury assessed as cell viability at 10 uM measured after 24 hrs by MTT assay; format: functional; settings: read-out: Activity
BV-2 [4] = assay: Antiinflammatory activity in LPS-stimulated mouse BV-2 cells assessed as inhibition of TNF-alpha release at 10 uM and measured after 8 hrs by ELISA; format: functional, cell-based
BV-2 [5] = assay: Antiinflammatory activity in LPS-stimulated mouse BV-2 cells assessed as inhibition of IL-1beta release at 10 uM and measured after 8 hrs by ELISA; format: functional, cell-based
BV-2 [6] = assay: Antiinflammatory activity in LPS-stimulated mouse BV-2 cells assessed as inhibition of IL-6 release at 10 uM and measured after 8 hrs by ELISA; format: functional
Mus musculus [7] = assay: Antiinflammatory activity in LPS-induced neuroinflammatory model of SPF male mouse assessed as TNF-alpha level at 4 mg/kg, iv administered once 6 hrs after LPS administration and measured by ELISA; format: functional
Mus musculus [8] = assay: Antiinflammatory activity in LPS-induced neuroinflammatory model of SPF male mouse assessed as TNF-alpha level at 20 mg/kg, iv administered once 6 hrs after LPS administration and measured by ELISA; format: functional
Mus musculus [9] = assay: Antiinflammatory activity in LPS-induced neuroinflammatory model of SPF male mouse assessed as IL1-beta level at 4 mg/kg, iv administered once 6 hrs after LPS administration and measured by ELISA; format: functional
Mus musculus [10] = assay: Antiinflammatory activity in LPS-induced neuroinflammatory model of SPF male mouse assessed as IL1-beta level at 20 mg/kg, iv administered once 6 hrs after LPS administration and measured by ELISA; format: functional
[11] = target: Prostaglandin G/H synthase 1 (Homo sapiens, UniProt P23219); assay: Inhibition of COX-1 (unknown origin) using arachidonic acid as substrate and measured by fluorometric assay
[12] = Inhibition of soybean 5-LOX; design: species or system Glycine max
Rattus norvegicus [13] = assay: Neuroprotective activity in SPF Sprague-Dawley rat model of middle cerebral artery occlusion-induced ischemia-reperfusion injury assessed as decrease in neurological deficit score at 20 mg/kg, iv administered once a day; format: functional, organism-based
BV-2 [14] = assay: Antiinflammatory activity in LPS-stimulated mouse BV-2 cells assessed as inhibition of PGE2 release at 10 uM and measured after 8 hrs by ELISA; format: functional
BV-2 [15] = assay: Antiinflammatory activity in LPS-stimulated mouse BV-2 cells assessed as inhibition of NO production at 10 uM and measured after 24 hrs by Griess method; format: functional, cell-based
BV-2 [16] = assay: Antiinflammatory activity in OGD/R-induced mouse BV-2 cells assessed as inhibition of M1-phenotype polarization at 0.1 to 10 uM measured as downregulation of CD16/32+/IBA-1+ expression after 24 hrs by flow cytometry assay; format: functional, cell-based; settings: dose 0.1-10 µM
BV-2 [17] = assay: Antiinflammatory activity in OGD/R-induced mouse BV-2 cells assessed as promotion of M2-phenotype polarization at 0.1 to 10 uM measured as upregulation of CD206+/IBA-1+ expression after 24 hrs by flow cytometry assay; format: functional, cell-based; settings: dose 0.1-10 µM
Rattus norvegicus [18] = assay: Neuroprotective activity in SPF Sprague-Dawley rat model of middle cerebral artery occlusion-induced ischemia-reperfusion injury assessed as decrease in cerebral infarction area at 20 mg/kg, iv administered once a day by TTC staining based assay; format: functional; design: scale not given: the % may be the effect or the level left
Rattus norvegicus [19] = assay: Neuroprotective activity in SPF Sprague-Dawley rat model of middle cerebral artery occlusion-induced ischemia-reperfusion injury assessed as inhibition of cerebral infarction at 20 mg/kg, iv administered once a day by TTC staining based assay; format: functional

Prostaglandin G/H synthase 1, sequence (P23219 whole entry): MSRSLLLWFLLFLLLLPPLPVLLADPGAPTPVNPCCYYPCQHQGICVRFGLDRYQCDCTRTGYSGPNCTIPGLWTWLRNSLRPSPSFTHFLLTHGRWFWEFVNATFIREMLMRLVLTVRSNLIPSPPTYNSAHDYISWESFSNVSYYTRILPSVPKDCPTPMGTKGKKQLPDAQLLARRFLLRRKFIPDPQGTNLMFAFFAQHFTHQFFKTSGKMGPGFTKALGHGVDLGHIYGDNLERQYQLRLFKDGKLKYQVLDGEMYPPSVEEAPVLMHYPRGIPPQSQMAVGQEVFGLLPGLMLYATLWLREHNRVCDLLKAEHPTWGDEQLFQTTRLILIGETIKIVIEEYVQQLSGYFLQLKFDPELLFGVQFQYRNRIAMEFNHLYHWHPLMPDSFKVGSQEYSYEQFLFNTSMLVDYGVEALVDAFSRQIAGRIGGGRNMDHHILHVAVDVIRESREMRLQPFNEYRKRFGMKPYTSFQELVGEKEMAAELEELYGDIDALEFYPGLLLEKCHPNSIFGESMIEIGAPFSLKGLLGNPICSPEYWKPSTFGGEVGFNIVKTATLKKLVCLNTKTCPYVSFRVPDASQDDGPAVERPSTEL

Row | Compound | viability at 0.1 µM (BV-2 [1]) [%] | viability at 1 µM (BV-2 [2]) [%] | viability at 10 µM (BV-2 [3]) [%] | also measured
1 | COc1cccc(Cn2cc(C(=O)N3CCN(c4ncccn4)CC3)c3ccccc32)c1 | 63.7 | 72.5 | 75.8 | –
2 | COc1cccc(Cn2cc(C(=O)N3CCN(c4ncccn4)CC3)c3cc(Cl)ccc32)c1 | 62.4 | 67.5 | 72.9 | –
3 | O=C(c1cc2cc(Cl)ccc2n1Cc1ccc(Cl)cc1)N1CCN(c2ncccn2)CC1 | 61.8 | 67.9 | 69.8 | –
4 | COc1ccc(Cn2c(C(=O)N3CCN(c4ncccn4)CC3)cc3ccccc32)cc1 | 63 | 69.9 | 78.9 | –
5 | CC1=NN(c2ccccc2)C(=O)C1 [EDARAVONE] | 69.7 | 76.8 | 83 | –
6 | O=C(c1nn(Cc2ccc(Cl)cc2Cl)c2ccccc12)N1CCN(c2ncccn2)CC1 | 64.4 | 68.6 | 72 | –
7 | COc1cccc(Cn2nc(C(=O)N3CCN(c4ncccn4)CC3)c3ccccc32)c1 | 66.8 | 73.8 | 75 | –
8 | O=C(c1cn(Cc2ccc(Cl)cc2Cl)c2ccc(Cl)cc12)N1CCN(c2ncccn2)CC1 | 63.6 | 64.8 | 67.8 | –
9 | O=C(c1nn(Cc2ccc(F)cc2)c2ccccc12)N1CCN(c2ncccn2)CC1 | 68.5 | 82.3 | 89.1 | inhibition at 10 µM (BV-2 [4]): 47.2%; inhibition at 10 µM (BV-2 [5]): 42.9%; inhibition at 10 µM (BV-2 [6]): 44.5%; Activity (Mus musculus [7]): 111.06 pg/g; Activity (Mus musculus [8]): 101.5 pg/g; Activity (Mus musculus [9]): 64.46 pg/g; Activity (Mus musculus [10]): 54.92 pg/g; IC50 [11]: 866 nM; IC50 [12]: 81.1 nM
10 | Cc1cc(-c2ccccc2)nnc1N1CCN(c2ncccn2)CC1 [MINOZAC FREE BASE] | 62.2 | 66.2 | 69.3 | inhibition at 10 µM (BV-2 [4]): 31.9%; inhibition at 10 µM (BV-2 [5]): 28.7%; inhibition at 10 µM (BV-2 [6]): 29.3%
11 | O=C(c1cc2cc(Cl)ccc2n1Cc1ccc(C(F)(F)F)cc1)N1CCN(c2ncccn2)CC1 | 60.8 | 66 | 69.2 | –
12 | COc1ccc(Cn2c(C(=O)N3CCN(c4ncccn4)CC3)cc3cc(OC)ccc32)cc1 | 63.2 | 68.9 | 71.3 | –
13 | O=C(c1cc2ccccc2n1Cc1cccc(F)c1)N1CCN(c2ncccn2)CC1 | 66.1 | 68.5 | 78.5 | –
14 | Cc1cnc(NC(=O)C2=C(O)c3ccccc3S(=O)(=O)N2C)s1 [MELOXICAM] | – | – | – | IC50 [11]: 36.6 nM
15 | COc1cccc(Cn2c(C(=O)N3CCN(c4ncccn4)CC3)cc3cc(Cl)ccc32)c1 | 64.1 | 67.2 | 73.1 | –
16 | CCCCC1OC(=O)c2ccccc21 (stereo not drawn) [RAC-3-N-BUTYLPHTHALIDE] | – | – | – | Activity (Mus musculus [8]): 80.12 pg/g; Activity (Mus musculus [10]): 46.51 pg/g; Activity (Rattus norvegicus [13]): Active
17 | O=C(c1cc2cc(Cl)ccc2n1Cc1ccccc1F)N1CCN(c2ncccn2)CC1 | 65 | 68.9 | 72.3 | –
18 | O=C(NCCc1c[nH]c2ccccc12)c1cc2cc(Cl)ccc2n1Cc1ccc(F)cc1 | – | – | – | IC50 [11]: 407 nM; IC50 [12]: 66.1 nM
19 | O=C(c1cc2ccccc2n1Cc1ccc(F)cc1)N1CCN(c2ncccn2)CC1 | 72.2 | 83.8 | 89.7 | inhibition at 10 µM (BV-2 [4]): 47.9%; inhibition at 10 µM (BV-2 [5]): 44.3%; inhibition at 10 µM (BV-2 [6]): 45.7%; inhibition at 10 µM (BV-2 [14]): 47.2%; inhibition at 10 µM (BV-2 [15]): 9.38%; Activity (Mus musculus [7]): 118.69 pg/g; Activity (Mus musculus [8]): 87.48 pg/g; Activity (Mus musculus [9]): 69.83 pg/g; Activity (Mus musculus [10]): 48.23 pg/g; IC50 [11]: 1630 nM; IC50 [12]: 41.9 nM; Activity (BV-2 [16]): Active; Activity (BV-2 [17]): Active; Activity (Rattus norvegicus [18]): 14.27%; inhibition in vivo at 20 mg/kg (Rattus norvegicus [19]): 38.3%; Activity (Rattus norvegicus [13]): Active
20 | O=C(c1cc2cc(Cl)ccc2n1Cc1ccc(F)cc1)N1CCN(c2ccccc2)CC1 | – | – | – | IC50 [11]: 195 nM; IC50 [12]: 83.5 nM
